# From paper PMC6972920, “Structure-based development of caged dopamine D2/D3 receptor antagonists” (Scientific Reports, 2020)
# Tests used:
# [1] = Quantum yield determination of uncaging (365 nm LED); type: physicochemical; settings: for quantum yield φ for photolytic liberation of dechloroeticlopride: 365 nm; for quantum yield ϕ: 0.1 mM in aqueous buffer; for quantum yield ϕ / yield of liberated dechloroeticlopride: 365 nm LED
# Method: Quantum yield determination. Quantum yields were determined in the following setup: translation stages (horizontal and vertical): Thorlabs DT 25/M or DT S25/M; photographic lens with f = 50 mm; magnetic stirrer: Faulhaber motor (1524B024S R) with 14:1 gear (15A); PS19Q power sensor from Coherent; PowerMax software; adjustable power supply “Basetech BT-153 0-15 V/DC 0-3 A 45 W” [2].
# Measurements were performed in a covered apparatus to minimize the influence of ambient light. A 10 mm Hellma® quartz fluorescence cuvette with solvent (aqueous buffer solution, 2 ml) and a stirring bar was placed in the beam of a 365 nm LED and the transmitted power (Pref = 4.40 mW) was measured by a calibrated photodiode horizontal to the cuvette. The content of the cuvette was changed to a 0.1 mM solution of the respective caged compound in aqueous buffer (2 ml) with a stirring bar. The transmitted power was measured analogously to the blank solution. The sample was further irradiated and the transmitted power as well as the respective yield of liberated benzamide dechloroeticlopride was recorded after different times. The quantum yield was then calculated with the following […]
# ϕ = N௉ = c௉ ∙ V ∙N஺ ∙ h ∙c
# ϕ = quantum yield h = Planck constant
# N௉ = number of product molecules formed c = speed of light
# N௉௛.௔௕௦. = number of absorbed photons P௔௕௦. = radiant power absorbed
# c௉ = product concentration ∆t = irradiation time
# V = sample volume λ = irradiation wavelength […]
# entry compound irradiation time Pabs. yield ϕ
# [2] = biological target: T1, human adrenergic α1A receptor (Homo sapiens, UniProt P35348); experiment: Competition binding, [3H]prazosin, HEK293T membranes; settings: ± SD of two experiments
# T1 construct: expressed in transfected cells; host or cells: HEK293T cells, transient transfection
# T1 sequence (P35348 1-466): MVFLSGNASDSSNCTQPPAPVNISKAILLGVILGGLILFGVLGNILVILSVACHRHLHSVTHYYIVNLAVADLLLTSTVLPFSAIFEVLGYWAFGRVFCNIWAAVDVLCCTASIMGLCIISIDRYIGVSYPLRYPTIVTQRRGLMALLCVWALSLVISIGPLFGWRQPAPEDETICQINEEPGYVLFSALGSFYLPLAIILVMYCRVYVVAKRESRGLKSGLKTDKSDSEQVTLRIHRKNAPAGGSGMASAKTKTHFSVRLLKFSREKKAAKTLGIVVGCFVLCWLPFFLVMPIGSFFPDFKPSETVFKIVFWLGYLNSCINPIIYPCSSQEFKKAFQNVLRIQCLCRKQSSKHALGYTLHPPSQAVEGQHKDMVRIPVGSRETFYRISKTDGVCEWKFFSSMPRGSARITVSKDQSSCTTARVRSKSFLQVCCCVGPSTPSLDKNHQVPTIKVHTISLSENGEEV
# [3] = biological target: T2, human serotonin 5-HT1A receptor (Homo sapiens, UniProt P08908); experiment: Competition binding, [3H]WAY600135, HEK293T membranes; settings: ± SD of two experiments
# T2 construct: expressed in transfected cells; host or cells: HEK293T cells, transient transfection
# T2 sequence (P08908 1-422): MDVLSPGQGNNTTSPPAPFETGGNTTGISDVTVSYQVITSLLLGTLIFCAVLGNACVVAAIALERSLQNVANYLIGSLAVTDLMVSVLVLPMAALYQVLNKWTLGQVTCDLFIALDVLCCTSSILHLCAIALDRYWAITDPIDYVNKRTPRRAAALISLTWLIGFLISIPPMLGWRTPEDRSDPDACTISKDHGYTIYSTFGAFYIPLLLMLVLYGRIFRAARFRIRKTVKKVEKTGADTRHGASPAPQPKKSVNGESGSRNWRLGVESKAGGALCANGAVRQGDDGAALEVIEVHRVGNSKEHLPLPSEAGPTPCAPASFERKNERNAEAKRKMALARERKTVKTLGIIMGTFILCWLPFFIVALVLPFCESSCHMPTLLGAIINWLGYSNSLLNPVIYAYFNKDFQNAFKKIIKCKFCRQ
# [4] = biological target: T3, human adrenergic α2A receptor (Homo sapiens, UniProt P08913); experiment: Competition binding, [3H]RX821002, HEK293T membranes; settings: [3H]RX821002; ± SD of two experiments
# T3 construct: expressed in transfected cells; host or cells: HEK293T cells, transient transfection
# T3 sequence (P08913 1-465): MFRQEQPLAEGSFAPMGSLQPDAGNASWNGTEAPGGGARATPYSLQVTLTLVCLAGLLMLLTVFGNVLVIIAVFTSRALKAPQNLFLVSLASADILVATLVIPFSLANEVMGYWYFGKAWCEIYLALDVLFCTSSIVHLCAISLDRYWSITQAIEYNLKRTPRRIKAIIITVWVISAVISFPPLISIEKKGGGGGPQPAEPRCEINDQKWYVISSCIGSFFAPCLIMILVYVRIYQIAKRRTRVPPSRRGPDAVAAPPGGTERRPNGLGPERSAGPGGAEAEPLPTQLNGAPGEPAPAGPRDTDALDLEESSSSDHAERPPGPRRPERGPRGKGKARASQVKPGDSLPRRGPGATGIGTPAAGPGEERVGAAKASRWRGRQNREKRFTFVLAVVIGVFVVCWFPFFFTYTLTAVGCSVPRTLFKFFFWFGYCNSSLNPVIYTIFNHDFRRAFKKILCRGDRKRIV
# D2 and D3 receptors = experiment: Radioligand binding, summary over D2 and D3 subtypes; parameters: species or system human
# [5] = biological target: T4, human serotonin 5-HT2A receptor (Homo sapiens, UniProt P28223); experiment: Competition binding, [3H]ketanserin, HEK293T membranes; settings: ± SD of two experiments
# T4 construct: expressed in transfected cells; host or cells: HEK293T cells, transient transfection
# [6] = biological target: T5, human dopamine D1 receptor (Homo sapiens, UniProt P21728); experiment: Competition binding, [3H]SCH23390, HEK293T membranes; settings: read-out: Ki value D1
# T5 construct: expressed in transfected cells; host or cells: HEK293T cells, transient transfection
# [7] = biological target: T6, human adrenergic β2 receptor (Homo sapiens, UniProt P07550); experiment: Competition binding, [3H]CGP12177, HEK293T membranes; settings: ± SD of two experiments
# T6 construct: expressed in transfected cells; host or cells: HEK293T cells, transient transfection
# [8] = biological target: T7, human dopamine D5 receptor (Homo sapiens, UniProt P21918); experiment: Competition binding, [3H]SCH23390, HEK293T membranes
# T7 construct: expressed in transfected cells; host or cells: HEK293T cells, transient transfection
# T7 sequence (P21918 whole entry): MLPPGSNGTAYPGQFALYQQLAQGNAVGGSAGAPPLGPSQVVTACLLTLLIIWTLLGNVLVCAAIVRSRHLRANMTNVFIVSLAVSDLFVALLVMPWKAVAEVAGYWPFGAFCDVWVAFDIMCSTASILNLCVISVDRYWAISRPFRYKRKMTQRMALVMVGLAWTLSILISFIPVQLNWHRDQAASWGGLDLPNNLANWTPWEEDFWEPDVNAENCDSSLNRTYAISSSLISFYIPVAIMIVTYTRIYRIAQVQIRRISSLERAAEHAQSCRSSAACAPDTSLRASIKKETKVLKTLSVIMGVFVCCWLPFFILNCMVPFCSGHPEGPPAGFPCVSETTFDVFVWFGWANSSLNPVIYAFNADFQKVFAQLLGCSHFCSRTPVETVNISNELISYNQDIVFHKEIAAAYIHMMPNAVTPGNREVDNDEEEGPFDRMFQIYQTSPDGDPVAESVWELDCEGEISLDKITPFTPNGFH
# T4 sequence (P28223 whole entry): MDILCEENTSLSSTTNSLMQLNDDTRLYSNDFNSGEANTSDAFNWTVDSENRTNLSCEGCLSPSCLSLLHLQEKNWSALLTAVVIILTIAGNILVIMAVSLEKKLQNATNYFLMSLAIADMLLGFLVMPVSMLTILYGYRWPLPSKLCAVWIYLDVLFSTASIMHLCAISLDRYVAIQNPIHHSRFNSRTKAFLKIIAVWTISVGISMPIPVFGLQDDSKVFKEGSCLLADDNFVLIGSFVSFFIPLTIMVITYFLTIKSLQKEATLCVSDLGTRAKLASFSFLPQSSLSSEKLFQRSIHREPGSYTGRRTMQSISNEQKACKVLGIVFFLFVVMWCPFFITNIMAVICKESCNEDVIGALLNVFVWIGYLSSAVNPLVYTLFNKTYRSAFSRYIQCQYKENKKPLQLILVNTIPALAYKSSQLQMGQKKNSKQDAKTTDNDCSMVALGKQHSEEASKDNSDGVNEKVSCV
# T6 sequence (P07550 whole entry): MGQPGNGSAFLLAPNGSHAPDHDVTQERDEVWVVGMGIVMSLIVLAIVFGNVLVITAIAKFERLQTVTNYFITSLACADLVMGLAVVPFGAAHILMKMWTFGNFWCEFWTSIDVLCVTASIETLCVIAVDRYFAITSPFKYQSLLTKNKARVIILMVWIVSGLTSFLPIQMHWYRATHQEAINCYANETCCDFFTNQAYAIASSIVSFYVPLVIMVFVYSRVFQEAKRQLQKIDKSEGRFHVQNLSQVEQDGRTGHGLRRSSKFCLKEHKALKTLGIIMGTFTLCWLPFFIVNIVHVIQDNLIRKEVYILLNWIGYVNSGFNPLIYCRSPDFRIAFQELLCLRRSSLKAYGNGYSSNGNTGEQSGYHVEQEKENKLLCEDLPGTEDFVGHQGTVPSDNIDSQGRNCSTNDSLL
# T5 sequence (P21728 whole entry): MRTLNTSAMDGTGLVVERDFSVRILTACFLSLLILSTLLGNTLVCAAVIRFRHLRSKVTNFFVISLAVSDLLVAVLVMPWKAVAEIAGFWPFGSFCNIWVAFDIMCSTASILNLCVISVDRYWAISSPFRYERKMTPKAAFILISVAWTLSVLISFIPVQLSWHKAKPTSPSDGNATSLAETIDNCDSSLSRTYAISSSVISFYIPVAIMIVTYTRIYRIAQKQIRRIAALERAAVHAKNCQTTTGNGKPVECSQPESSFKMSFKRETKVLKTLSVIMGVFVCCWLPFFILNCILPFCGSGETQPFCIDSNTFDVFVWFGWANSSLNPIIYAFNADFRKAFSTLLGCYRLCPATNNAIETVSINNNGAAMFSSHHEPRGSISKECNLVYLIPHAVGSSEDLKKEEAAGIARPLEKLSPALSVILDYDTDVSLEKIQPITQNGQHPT
quantum yield φ for photolytic liberation of dechloroeticlopride [1] [%],quantum yield ϕ ([1]; irradiation time 10 min) [%],yield of liberated dechloroeticlopride ([1]; irradiation time 10 min) [%],quantum yield ϕ ([1]; irradiation time 30 min) [%],yield of liberated dechloroeticlopride ([1]; irradiation time 30 min) [%],Ki [2] [nM],Ki [3] [nM],Ki [4] [nM],"difference in affinity, uncaged dechloroeticlopride over 4, 5 and 6 (D2 and D3 receptors; at D2S and D3, radioligand displacement curves)","Ki (D2 and D3 receptors; range over D2L, D2S, D3, stated in text) [nM]",Ki [5] [nM],Ki [6] [nM],Ki [7] [nM],Ki [8] [nM],Structure (SMILES)
0.5,2.9,11,1.2,16,,,,,,,,,,"CCc1ccc(OC)c(C(=O)NC[C@@H]2CCCN2CC)c1OCc1ccccc1[N+](=O)[O-] [compound 4, (S)-3-Ethyl-N-[(1-ethylpyrrolidin-2-yl)methyl]-6-methoxy-2-[(2-nitrobenzyl)oxy]benzamide]"
2.1,0.7,17,0.3,22,,,,,,,,,,CCc1ccc(OC)c(C(=O)NC[C@@H]2CCCN2CC)c1OCc1cc(OC)c(OC)cc1[N+](=O)[O-] [compound 5]
,,,,,880 ± 150,1800 ± 420,100 ± 36,more than 100 fold,1.2 to 2.4,270 ± 28,11000 ± 3600,8900 ± 3000,49000 ± 17000,"CCc1ccc(OC)c(C(=O)NC[C@@H]2CCCN2CC)c1O [dechloroeticlopride, (S)-3-Ethyl-N-[(1-ethylpyrrolidin-2-yl)methyl]-2-hydroxy-6-methoxybenzamide, reference compound]"
